Results: patent US10538532B2, “Hepatitis B antiviral agents” (ENANTA PHARMACEUTICALS, INC., priority 2016, dated 2020)
Read-outs that look alike come from different tables or passages of the source.

Tested on: HBV
Assay: HepAD38 antiviral assay: reduction of viral product accumulation (virion DNA by qPCR, HBsAg or HBeAg by ELISA)
Format: cell-based, hepatitis B virus
Conditions: Hepatitis B virus, HePAD38, 120 h, read-out: HepAD38 EC50
Experimental: Methods: HepAD38 cells are maintained as previously reported (Ladner et al, Antimicrob. Agents Chemother. 1997, […], 1715). Briefly, cells are passaged upon attaining confluency in DMEM/F12 media in the presence of 10% FBS, Penn/Strep, 250 μg/mL G418, and 1 ug/ml tetracycline. Novel compounds are screened by first washing cells three times with PBS to remove tetracycline, and plating in 96 well plates at 35,000 cells/well. Compounds dissolved in DMSO are then diluted 1:200 into wells containing cells. Five days after compound addition, material is harvested for analysis. For an extended 8 day analysis, cells are plated and treated as described above, but media and compound are refreshed on d2 and d5 post initial treatment.
On harvest day, virion DNA is obtained by lysing with Sidestep Lysis and Stabilization Buffer and then quantified via quantitative real time PCR. Commercially available ELISA kits are used to quantitate the viral proteins HBsAg (Alpco) or HbeAg (US Biological) by following the manufacturer's recommended protocol after diluting samples to match the linear range of their respective assays. Irrespective of readout, compound concentrations that reduce viral product accumulation in the cell lysates or supernatants by 50% relative to no drug controls (EC50) are reported; EC50 ranges are as follows: A<0.1 μM; B 0.1-0.4 μM; C>0.4 μM.

[1] = HepAD38 cells, five days after compound addition, concentration reducing viral product accumulation by 50% relative to no drug controls

| SMILES | EC50 [1] [nM] | EC50 [nM] |
| --- | --- | --- |
| O=C(Nc1cc(F)c(F)c(F)c1)c1ccc(Cl)c(S(=O)(=O)[C@H]2C3CC[C@H]2C(O)C(=O)C3)c1 (stereo partly shown) [Example 146] | < 100 |  |
| CN(C)c1ccc(C(=O)Nc2cc(F)c(F)c(F)c2)cc1S(=O)(=O)[C@H]1C2CC[C@H]1C[C@](O)(CO)C2 [Example 147] | > 400 |  |
| [N-]=[N+]=Nc1ccc(C(=O)Nc2cc(F)c(F)c(F)c2)cc1S(=O)(=O)[C@H]1C2CC[C@H]1C[C@](O)(CO)C2 [Example 148] | > 400 |  |
| O=C(Nc1cc(F)c(F)c(F)c1)c1ccc(Cl)c(S(=O)(=O)[C@H]2C3CC[C@H]2C[C@](O)(C(O)c2ccccc2)C3)c1 (stereo partly shown) [Example 149] | < 100 |  |
| CC(C)(O)[C@]1(O)CC2CC[C@@H](C1)[C@H]2S(=O)(=O)c1cc(C(=O)Nc2cc(F)c(F)c(F)c2)ccc1Cl [Example 151] | < 100 |  |
| CO[C@]1(CO)CC2CC[C@@H](C1)[C@H]2S(=O)(=O)c1cc(C(=O)Nc2cc(F)c(F)c(F)c2)ccc1Cl [Example 152] | < 100 |  |
| COC(=O)[C@]1(O)CC2CC[C@@H](C1)[C@H]2S(=O)(=O)c1cc(C(=O)Nc2cc(F)c(F)c(F)c2)ccc1Cl [Example 153] | > 400 |  |
| O=C1OC[C@@]2(CC3CC[C@@H](C2)[C@H]3S(=O)(=O)c2cc(C(=O)Nc3cc(F)c(F)c(F)c3)ccc2Cl)O1 [Example 155] | < 100 |  |
| O=C(Nc1cc(F)c(F)c(F)c1)c1ccc(Cl)c(S(=O)(=O)[C@H]2C3CC[C@H]2C(O)[C@](O)(CO)C3)c1 (stereo partly shown) [Example 156] | < 100 |  |
| O=C(Nc1cc(F)c(F)c(F)c1)c1ccc(Cl)c(S(=O)(=O)[C@H]2C3CC[C@H]2C[C@](O)(/C=N/Oc2ccccc2)C3)c1 [Example 157] | < 100 |  |
| O=C(Nc1cc(F)c(F)c(F)c1)c1ccc(Cl)c(S(=O)(=O)[C@H]2C3CC[C@H]2C[C@](O)(/C=N/O)C3)c1 [Example 158] | < 100 |  |
| [2H]C1([2H])C2C[C@@](O)(CO)C[C@H](C1([2H])[2H])[C@@]2([2H])S(=O)(=O)c1cc(C(=O)Nc2cc(F)c(F)c(F)c2)ccc1Cl [Example 159] | < 100 |  |
| C[Si](C)(C)C#C[C@@]1(O)CC2CC[C@@H](C1)[C@H]2S(=O)(=O)c1cc(C(=O)Nc2cc(F)c(F)c(F)c2)ccc1Cl [Example 160] |  | 100 to 400 |
| C#C[C@@]1(O)CC2CC[C@@H](C1)[C@H]2S(=O)(=O)c1cc(C(=O)Nc2cc(F)c(F)c(F)c2)ccc1Cl [Example 161] | < 100 |  |
| C#C[C@]1(O)CC2CC[C@@H](C1)[C@H]2S(=O)(=O)c1cc(C(=O)Nc2cc(F)c(F)c(F)c2)ccc1Cl [Example 162] | < 100 |  |
| O=C(Nc1cc(F)c(F)c(F)c1)c1ccc(Cl)c(S(=O)(=O)[C@H]2C3CC[C@H]2[C@@H](CO)C(=O)C3)c1 [Example 163] | 100 to 400 |  |
| O=C(Nc1cc(F)c(F)c(F)c1)c1ccc(Cl)c(S(=O)(=O)[C@H]2C3CC[C@H]2C[C@@](O)(CO)C3)c1 [Example 164] | < 100 |  |
| O=C(Nc1cc(F)c(F)c(F)c1)c1ccc(Cl)c(S(=O)(=O)CCCCO[C@H]2C3CC[C@H]2C[C@](O)(CO)C3)c1 [Example 165] | > 400 |  |
| O=C(Nc1cc(F)c(F)c(F)c1)c1ccc(Cl)c(S(=O)(=O)C(CO)CC2CCOCC2)c1 (stereo not shown) [Example 166] | 100 to 400 |  |
| O=C(Nc1cc(F)c(F)c(F)c1)c1ccc(Cl)c(S(=O)(=O)[C@H]2C3CC[C@H]2C[C@](O)(C#Cc2ccccc2)C3)c1 [Example 167] | 100 to 400 |  |
| O=C(Nc1cc(F)c(F)c(F)c1)c1ccc(Cl)c(S(=O)(=O)[C@H]2C3CC[C@H]2C[C@@](O)(C#Cc2ccccc2)C3)c1 [Example 168] | > 400 |  |
| O=C(Nc1cc(F)c(F)c(F)c1)c1ccc(Cl)c(S(=O)(=O)[C@H]2C3CC[C@H]2C[C@](O)(C#Cc2ccncc2)C3)c1 [Example 169] | < 100 |  |
| O=C(Nc1cc(F)c(F)c(F)c1)c1ccc(Cl)c(S(=O)(=O)[C@H]2C3CC[C@H]2C[C@@](O)(C#Cc2ccncc2)C3)c1 [Example 170] | > 400 |  |
| O=C(Nc1cc(F)c(F)c(F)c1)c1ccc(Cl)c(S(=O)(=O)[C@H]2C3CC[C@H]2C[C@](O)(C#Cc2ccccn2)C3)c1 [Example 171] | < 100 |  |
| O=C(Nc1cc(F)c(F)c(F)c1)c1ccc(Cl)c(S(=O)(=O)[C@H]2C3CC[C@H]2C[C@@](O)(C#Cc2ccccn2)C3)c1 [Example 172] | 100 to 400 |  |
| C=CC[C@]1(O)CC2CCC(C1)[C@@H]2S(=O)(=O)c1cc(C(=O)Nc2cc(F)c(F)c(F)c2)ccc1Cl [Example 173] | < 100 |  |
| O=C(Nc1cc(F)c(F)c(F)c1)c1ccc(Cl)c(S[C@H]2C3CC4C[C@H](C3)C[C@@H]2C4)c1 [Example 174] | > 400 |  |
| O=C(Nc1cc(F)c(F)c(F)c1)c1ccc(Cl)c([S+]([O-])[C@H]2C3C[C@@H]4C[C@H](C3)C[C@@H]2C4)c1 (stereo partly shown) [Example 175] | > 400 |  |

| SMILES | EC50 [1] [nM] | EC50 [nM] |
| --- | --- | --- |
| O=C(Nc1cc(F)c(F)c(F)c1)c1ccc(Cl)c(S(=O)(=O)[C@H]2C3C[C@@H]4C[C@H](C3)C[C@@H]2C4)c1 [Example 176] | > 400 |  |
| O=C(Nc1cc(F)c(F)c(F)c1)c1ccc(Cl)c(S(=O)(=O)C[C@H]2C3CC[C@H]2C[C@](O)(CO)C3)c1 [Example 177] | < 100 |  |
| O=C(Nc1cc(F)c(F)c(F)c1)c1ccc(Cl)c(S(=O)(=O)C[C@@H]2C3CC[C@H]2C[C@](O)(CO)C3)c1 [Example 178] | < 100 |  |
| O=C1CC2CC[C@@H](C1)[C@@H]2CS(=O)(=O)c1cc(C(=O)Nc2cc(F)c(F)c(F)c2)ccc1Cl [Example 179] | < 100 |  |
| O=C1CC2CC[C@@H](C1)[C@H]2CS(=O)(=O)c1cc(C(=O)Nc2cc(F)c(F)c(F)c2)ccc1Cl [Example 180] | < 100 |  |
| O=C(Nc1cc(F)c(F)c(F)c1)c1ccc(Cl)c(S(=O)(=O)C[C@@H]2C3CC[C@H]2C[C@@H](O)C3)c1 [Example 181] | < 100 |  |
| O=C(Nc1cc(F)c(F)c(F)c1)c1ccc(Cl)c(S(=O)(=O)[C@H]2CC3CCC(C2)[C@H]3O)c1 [Example 183] | 100 to 400 |  |
| O=C(Nc1cc(F)c(F)c(F)c1)c1ccc(Cl)c(S(=O)(=O)[C@H]2CC3CCC(C2)[C@H]3OC2CCCO2)c1 (stereo partly shown) [Example 184] | > 400 |  |
| CC(=O)OC[C@]1(OC(C)=O)CC2CC[C@@H](C1)[C@H]2S(=O)(=O)c1cc(C(=O)Nc2cc(F)c(F)c(F)c2)ccc1Cl [Example 185] | < 100 |  |
| CS(=O)(=O)NC[C@@]1(O)CC2CC[C@@H](C1)[C@H]2S(=O)(=O)c1cc(C(=O)Nc2cc(F)c(F)c(F)c2)ccc1Cl [Example 186] | 100 to 400 |  |
| O=C(Nc1cc(F)c(F)c(F)c1)c1ccc(Cl)c(S(=O)(=O)[C@H]2C3CC[C@H]2C[C@](O)(COCc2cccnc2)C3)c1 [Example 187] | < 100 |  |
| CC(C)(C)[Si](C)(C)O[C@H]1C2CCC1C[C@@H](Sc1cc(C(=O)Nc3cc(F)c(F)c(F)c3)ccc1Cl)C2 [Example 189] |  | 100 to 400 |
| O=C(Nc1cc(F)c(F)c(F)c1)c1ccc(Cl)c(S[C@H]2CC3CCC(C2)[C@@H]3O)c1 [Example 190] | > 400 |  |
| O=C(Nc1cc(F)c(F)c(F)c1)c1ccc(Cl)c(S[C@H]2CC3CCC(C2)[C@H]3O)c1 [Example 191] | > 400 |  |
| O=C(Nc1cc(F)c(F)c(F)c1)c1ccc(Cl)c(S(=O)(=O)[C@H]2CC3CCC(C2)[C@@H]3O)c1 [Example 192] | 100 to 400 |  |
| O=C(Nc1cc(F)c(F)c(F)c1)c1ccc(Cl)c(S(=O)(=O)C[C@@H]2C3CC[C@H]2C[C@H](O)C3)c1 [Example 193] | 100 to 400 |  |
| O=C(Nc1cc(F)c(F)c(F)c1)c1ccc(Cl)c(S(=O)(=O)C[C@H]2C3CCC2C[C@H](O)C3)c1 [Example 194] | < 100 |  |
| CC(C)(C)[Si](C)(C)O[C@H]1C2CCC1C[C@@H](S(=O)(=O)c1cc(C(=O)Nc3cc(F)c(F)c(F)c3)ccc1Cl)C2 [Example 195] | > 400 |  |
| C/[N+]([O-])=C\[C@]1(O)CC2CC[C@@H](C1)[C@H]2S(=O)(=O)c1cc(C(=O)Nc2cc(F)c(F)c(F)c2)ccc1Cl [Example 196] | < 100 |  |
| CCOC(OCC)[C@]1(O)CC2CC[C@@H](C1)[C@H]2S(=O)(=O)c1cc(C(=O)Nc2cc(F)c(F)c(F)c2)ccc1Cl [Example 197] | 100 to 400 |  |
| O=C(Nc1cccnc1)N[C@@H]1C2CC[C@H]1C[C@H](S(=O)(=O)c1cc(C(=O)Nc3cc(F)c(F)c(F)c3)ccc1Cl)C2 [Example 198] | < 100 |  |
| O=C(Nc1cc(F)c(F)c(F)c1)c1ccc(Cl)c(S(=O)(=O)[C@H]2C3CC[C@H]2C[C@](O)(/C=[N+](\[O-])Cc2ccccc2)C3)c1 [Example 199] | 100 to 400 |  |
| CN1OCC(C#N)C1[C@]1(O)CC2CC[C@@H](C1)[C@H]2S(=O)(=O)c1cc(C(=O)Nc2cc(F)c(F)c(F)c2)ccc1Cl (stereo partly shown) [Example 200] | 100 to 400 |  |
| CO/N=C/[C@]1(O)CC2CC[C@@H](C1)[C@H]2S(=O)(=O)c1cc(C(=O)Nc2cc(F)c(F)c(F)c2)ccc1Cl [Example 201] | < 100 |  |
| CCO/N=C/[C@]1(O)CC2CC[C@@H](C1)[C@H]2S(=O)(=O)c1cc(C(=O)Nc2cc(F)c(F)c(F)c2)ccc1Cl [Example 202] | < 100 |  |
| CC(C)(C)O/N=C/[C@]1(O)CC2CC[C@@H](C1)[C@H]2S(=O)(=O)c1cc(C(=O)Nc2cc(F)c(F)c(F)c2)ccc1Cl [Example 203] | < 100 |  |
| C=CCO/N=C/[C@]1(O)CC2CC[C@@H](C1)[C@H]2S(=O)(=O)c1cc(C(=O)Nc2cc(F)c(F)c(F)c2)ccc1Cl [Example 204] | < 100 |  |
